≈ marks a conversion by molar mass, not a printed value. Calls of active or inactive are those of the source. The calls are words filed in the database; no cut-off is given here.
What was measured:
[1] = test system: Trichophyton mentagrophytes; experiment: Fungicidal activity against Trichophyton mentagrophytes KCCM60449 at 8 times after 24 hrs by time-kill kinetics assay; type: functional, organism-based
Trichophyton rubrum [2] = experiment: Fungicidal activity against Trichophyton rubrum KCCM60450 at 8 times after 24 hrs by time-kill kinetics assay; type: functional, organism-based
Aspergillus fumigatus = experiment: Antifungal activity against Aspergillus fumigatus AF293 assessed as reduction in fungal growth incubated for 48 hrs by CLSI based broth microdilution method; type: functional
[3] = Stability in human liver microsomes assessed as parent compound remaining after 30 mins; type: ADME, Microsome; conditions: read-out: Stability
Candida albicans [4] = experiment: Antifungal activity against Candida albicans ATCC SC5314 assessed as reduction in fungal growth incubated for 48 hrs by CLSI based broth microdilution method; type: functional
[5] = Stability in mouse liver microsomes assessed as parent compound remaining after 30 mins; type: ADME, Microsome; conditions: microsomes, 0.5 h
Nakaseomyces glabratus [6] = experiment: Antifungal activity against Candida glabrata BG2 assessed as reduction in fungal growth incubated for 48 hrs by CLSI based broth microdilution method; type: functional
[7] = Stability in rat liver microsomes assessed as parent compound remaining after 30 mins; type: ADME, Microsome; conditions: microsomes, 0.5 h
Cryptococcus neoformans [8] = experiment: Antifungal activity against Cryptococcus neoformans H99 assessed as reduction in fungal growth incubated for 72 hrs by CLSI based broth microdilution method; type: functional
CYP3A4 = CYP3A4 (Homo sapiens, UniProt P08684); experiment: Inhibition of CYP3A4 (unknown origin) at 10 uM relative to control; type: ADME
CYP2D6 = CYP2D6 (Homo sapiens, UniProt P10635); experiment: Inhibition of CYP2D6 (unknown origin) at 10 uM relative to control; type: ADME
CYP2C19 = CYP2C19 (Homo sapiens, UniProt P33261); experiment: Inhibition of CYP2C19 (unknown origin) at 10 uM relative to control; type: ADME
Cytochrome P450 3A4 = Cytochrome P450 3A4 (Homo sapiens, UniProt P08684); experiment: Inhibition of CYP3A4 (unknown origin) relative to control; type: ADME
Cytochrome P450 2C9 = Cytochrome P450 2C9 (Homo sapiens, UniProt P11712); experiment: Inhibition of CYP2C9 (unknown origin) relative to control; type: ADME
Cytochrome P450 2D6 = Cytochrome P450 2D6 (Homo sapiens, UniProt P10635); experiment: Inhibition of CYP2D6 (unknown origin); type: ADME
[9] = Stability in human plasma assessed as parent compound remaining after 30 to 120 mins; type: ADME, cell-free; conditions: time 30-120 min
[10] = Stability in rat plasma assessed as parent compound remaining after 30 to 120 mins; type: ADME, cell-free; conditions: time 30-120 min
Cryptococcus neoformans [11] = experiment: Fungicidal activity against Cryptococcus neoformans H99 at 8 times of MIC after 12 hrs by time-kill kinetics assay; type: functional, organism-based
Trichophyton rubrum [12] = experiment: Ex vivo antifungal activity against Trichophyton rubrum KCCM60450 infected in human nail assessed as reduction in ATP level at 10 % w/w after 24 hrs; type: functional; set-up: scale not given: the % may be the effect or the level left
Nakaseomyces glabratus [13] = experiment: Induction of drug resistant in Candida glabrata BG2 assessed as increase in EZC IC50 at 16 times IC50; type: functional, organism-based
Candida albicans [14] = experiment: Induction of drug resistance in Candida albicans ATCC SC5314 assessed as increase in EZC IC50 at 8 time IC50 after 7 days; type: functional, organism-based; conditions: time 7.0 day
Candida albicans [15] = experiment: Induction of drug resistance in Candida albicans ATCC SC5314 assessed as increase in EZC IC50 at 8 time IC50 after 35 days; type: functional, organism-based; conditions: time 35.0 day
Candida albicans [16] = experiment: Induction of drug resistant in Candida albicans ATCC SC5314 assessed as increase in EZC IC50 at 16 times IC50; type: functional, organism-based
Cryptococcus neoformans [17] = experiment: Fungicidal activity against Cryptococcus neoformans H99 at 8 times of MIC after 24 hrs by time-kill kinetics assay; type: functional, organism-based
Nakaseomyces glabratus [18] = experiment: Induction of drug resistance in Candida glabrata BG2 assessed as increase in ECZ IC50 at 8 times IC50 after 4 days; type: functional, organism-based; conditions: BG2, 96 h
Nakaseomyces glabratus [19] = experiment: Induction of drug resistance in Candida glabrata BG2 assessed as increase in FCZ IC50 at 8 times IC50 after 23 days; type: functional, organism-based; conditions: BG2, 552 h
Candida albicans [20] = experiment: Induction of drug resistant in Candida albicans ATCC SC5314 assessed as increase in FCZ IC50 at 16 times IC50; type: functional, organism-based
Nakaseomyces glabratus [21] = experiment: Induction of drug resistant in Candida glabrata BG2 assessed as increase in FCZ IC50 at 16 times IC50; type: functional, organism-based
Candida albicans [22] = experiment: Induction of drug resistance in Candida albicans ATCC SC5314 assessed as increase in FCZ IC50 at 8 times IC50 measured after 5 to 22 days; type: functional, organism-based

Sequence of Cytochrome P450 2C9 (P11712 whole entry): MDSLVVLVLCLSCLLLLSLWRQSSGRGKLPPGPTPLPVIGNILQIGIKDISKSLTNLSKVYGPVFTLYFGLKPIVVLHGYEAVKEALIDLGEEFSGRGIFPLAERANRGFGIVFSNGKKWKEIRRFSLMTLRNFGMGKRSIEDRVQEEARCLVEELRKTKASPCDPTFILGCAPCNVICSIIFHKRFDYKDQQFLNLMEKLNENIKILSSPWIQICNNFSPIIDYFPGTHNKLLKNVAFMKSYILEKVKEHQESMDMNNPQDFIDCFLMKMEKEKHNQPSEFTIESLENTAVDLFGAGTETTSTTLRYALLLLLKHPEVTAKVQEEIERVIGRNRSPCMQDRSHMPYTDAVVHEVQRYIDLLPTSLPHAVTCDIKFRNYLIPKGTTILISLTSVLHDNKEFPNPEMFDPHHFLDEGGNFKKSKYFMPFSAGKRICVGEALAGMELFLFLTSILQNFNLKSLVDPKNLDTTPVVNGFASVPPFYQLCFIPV
Sequence of Cytochrome P450 3A4 (P08684 whole entry): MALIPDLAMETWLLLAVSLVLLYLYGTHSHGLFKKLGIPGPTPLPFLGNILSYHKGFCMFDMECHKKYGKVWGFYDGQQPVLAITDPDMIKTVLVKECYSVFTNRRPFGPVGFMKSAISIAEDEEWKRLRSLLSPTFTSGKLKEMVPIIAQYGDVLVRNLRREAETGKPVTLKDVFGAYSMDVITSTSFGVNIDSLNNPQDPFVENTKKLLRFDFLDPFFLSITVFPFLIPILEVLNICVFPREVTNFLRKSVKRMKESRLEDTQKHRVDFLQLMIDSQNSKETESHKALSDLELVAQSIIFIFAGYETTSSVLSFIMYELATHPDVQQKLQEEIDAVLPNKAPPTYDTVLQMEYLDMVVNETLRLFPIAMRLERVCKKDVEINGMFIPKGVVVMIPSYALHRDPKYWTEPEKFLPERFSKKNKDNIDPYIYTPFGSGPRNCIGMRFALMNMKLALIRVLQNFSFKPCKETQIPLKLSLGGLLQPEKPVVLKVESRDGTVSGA
Sequence of CYP2C19 (P33261 whole entry): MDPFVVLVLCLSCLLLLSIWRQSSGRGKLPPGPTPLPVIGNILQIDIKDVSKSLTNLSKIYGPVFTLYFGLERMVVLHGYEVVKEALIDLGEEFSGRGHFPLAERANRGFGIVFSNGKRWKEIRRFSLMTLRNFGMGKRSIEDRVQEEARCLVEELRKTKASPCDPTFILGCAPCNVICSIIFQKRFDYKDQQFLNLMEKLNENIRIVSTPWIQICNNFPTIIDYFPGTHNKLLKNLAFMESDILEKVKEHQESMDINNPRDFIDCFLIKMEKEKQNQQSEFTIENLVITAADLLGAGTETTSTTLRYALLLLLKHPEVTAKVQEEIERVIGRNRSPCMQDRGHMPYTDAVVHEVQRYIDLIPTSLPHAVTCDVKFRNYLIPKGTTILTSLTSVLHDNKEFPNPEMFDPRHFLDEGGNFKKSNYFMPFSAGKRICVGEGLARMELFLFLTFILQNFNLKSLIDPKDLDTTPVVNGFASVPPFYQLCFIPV
Sequence of CYP2D6 (P10635 whole entry): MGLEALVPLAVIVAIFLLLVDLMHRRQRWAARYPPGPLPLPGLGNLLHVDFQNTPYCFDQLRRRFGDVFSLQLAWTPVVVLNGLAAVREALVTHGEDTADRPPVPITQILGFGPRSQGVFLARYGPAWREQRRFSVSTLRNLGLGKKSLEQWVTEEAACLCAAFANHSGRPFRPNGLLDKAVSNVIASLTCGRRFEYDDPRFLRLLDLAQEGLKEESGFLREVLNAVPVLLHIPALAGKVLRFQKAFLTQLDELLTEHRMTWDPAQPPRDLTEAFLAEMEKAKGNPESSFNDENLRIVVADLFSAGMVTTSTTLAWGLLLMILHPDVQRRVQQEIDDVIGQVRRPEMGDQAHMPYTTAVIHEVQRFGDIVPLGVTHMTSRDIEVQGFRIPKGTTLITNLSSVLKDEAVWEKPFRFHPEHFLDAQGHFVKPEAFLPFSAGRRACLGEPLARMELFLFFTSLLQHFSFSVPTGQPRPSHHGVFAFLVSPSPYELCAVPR
Sequence of Cytochrome P450 2D6 (P10635 whole entry): as above
Sequence of CYP3A4 (P08684 whole entry): as the sequence (P08684 whole entry) above

SMILES: CN(C/C=C/C#CC(C)(C)C)Cc1cccc2ccccc12
- Activity [1]: inactive
- Activity (Trichophyton rubrum [2]): inactive

SMILES: CCCCC(NC)C(=O)NCCc1ccc(-c2ccc(Cl)c(Cl)c2)cc1.Cl (racemic)
- MIC (Aspergillus fumigatus): 8 µg/mL
- remaining at 0.5 h [3]: > 85%
- MIC (Candida albicans [4]): 8 µg/mL
- Stability [5]: Unstable
- MIC (Nakaseomyces glabratus [6]): 8 µg/mL
- Stability [7]: Unstable
- MIC (Cryptococcus neoformans [8]): 4 µg/mL

SMILES: CCCCC(N)C(=O)NCCc1ccc(-c2ccc(Cl)c(Cl)c2)cc1.Cl (racemic)
- MIC (Aspergillus fumigatus): 4 µg/mL
- remaining at 0.5 h [3]: > 85%
- MIC (Candida albicans [4]): 2 µg/mL
- inhibition at 10 µM (CYP3A4): > 70%
- inhibition at 10 µM (CYP2D6): > 70%
- MIC (Nakaseomyces glabratus [6]): 4 µg/mL
- MIC (Cryptococcus neoformans [8]): 1 µg/mL
- inhibition at 10 µM (CYP2C19): > 70%

SMILES: CCCC(N)C(=O)NCCc1ccc(OCc2ccc(C(F)(F)F)cc2)cc1.Cl (racemic)
- MIC (Aspergillus fumigatus): 32 µg/mL
- inhibition (INH) (Cytochrome P450 3A4): > 70%
- MIC (Candida albicans [4]): 16 µg/mL
- MIC (Nakaseomyces glabratus [6]): 32 µg/mL
- inhibition (INH) (Cytochrome P450 2C9): > 70%
- MIC (Cryptococcus neoformans [8]): 16 µg/mL

SMILES: CCCC(NC)C(=O)NCCc1ccc(-c2ccc(C(F)(F)F)cc2)cc1.Cl (racemic)
- MIC (Aspergillus fumigatus): 32 µg/mL
- inhibition (INH) (Cytochrome P450 3A4): Not Active
- MIC (Candida albicans [4]): 32 µg/mL
- inhibition (INH) (Cytochrome P450 2D6): Active
- MIC (Nakaseomyces glabratus [6]): 32 µg/mL
- inhibition (INH) (Cytochrome P450 2C9): Not Active
- MIC (Cryptococcus neoformans [8]): 16 µg/mL

SMILES: CCCC(NC)C(=O)NCCc1ccc(-c2ccc(Cl)c(Cl)c2)cc1.Cl (racemic)
- MIC (Aspergillus fumigatus): 8 µg/mL
- remaining at 0.5 h [3]: > 85%
- Stability [9]: > 95%
- MIC (Candida albicans [4]): 16 µg/mL
- Stability [5]: Unstable
- MIC (Nakaseomyces glabratus [6]): 16 µg/mL
- Stability [7]: Unstable
- MIC (Cryptococcus neoformans [8]): 4 µg/mL
- Stability [10]: > 95%

SMILES: C[C@@H]1[C@H](O)[C@@H](C)/C=C/C=C/C=C/C=C/C=C/C=C/C=C/[C@H](O[C@@H]2O[C@H](C)[C@@H](O)[C@H](N)[C@@H]2O)C[C@@H]2O[C@](O)(C[C@@H](O)C[C@@H](O)[C@H](O)CC[C@@H](O)C[C@@H](O)CC(=O)O[C@H]1C)C[C@H](O)[C@H]2C(=O)O [AMPHOTERICIN B]
- MIC (Aspergillus fumigatus): 1 µg/mL (≈ 1.08 µM)
- MIC (Candida albicans [4]): 0.25 µg/mL (≈ 0.271 µM)
- Activity (Cryptococcus neoformans [11]): Active
- MIC (Nakaseomyces glabratus [6]): 0.5 µg/mL (≈ 0.541 µM)
- MIC (Cryptococcus neoformans [8]): 0.25 µg/mL (≈ 0.271 µM)

SMILES: Cc1cc(C2CCCCC2)n(O)c(=O)c1 [CICLOPIROX]
- Activity [1]: inactive
- Activity (Trichophyton rubrum [12]): 24.21%
- Activity (Trichophyton rubrum [2]): inactive

SMILES: C=C1CCN([C@H](C)[C@](O)(Cn2cncn2)c2ccc(F)cc2F)CC1 [EFINACONAZOLE]
- Activity (Nakaseomyces glabratus [13]): Active
- Activity (Candida albicans [14]): Active
- Activity (Candida albicans [15]): Active
- Activity (Trichophyton rubrum [12]): 31.9%
- Activity (Candida albicans [16]): Active
- Activity (Cryptococcus neoformans [17]): inactive
- IC50 (Nakaseomyces glabratus [18]): 1 µg/mL (≈ 2.87 µM)

SMILES: OC(Cn1cncn1)(Cn1cncn1)c1ccc(F)cc1F [FLUCONAZOLE]
- IC50 (Nakaseomyces glabratus [19]): 64 µg/mL (≈ 209 µM)
- Activity (Candida albicans [20]): Active
- Activity (Cryptococcus neoformans [17]): inactive
- Activity (Nakaseomyces glabratus [21]): Active
- IC50 (Candida albicans [22]): 64 µg/mL (≈ 209 µM)

From ChEMBL document CHEMBL5030558, “Optimization and Evaluation of Novel Antifungal Agents for the Treatment of Fungal Infection” (J Med Chem, 2021)
